# Tested on: Rat and human cortical neurons
# Test: Amyloid beta treatment of neurons; phosphotyrosine immunoprecipitation and Western blot with tau antibodies
# Type: cell-based
# Details: neurons treated with Aβ peptide for 1-10 min
# Method: Rat and human cortical neurons were treated with Aβ peptide (25-35) or reverse Aβ peptide (35-25) for 1-10 min. Proteins containing phosphotyrosine were immunoprecipitated and separated by SDS-PAGE. Western blots of heat-stable extracts of neuronal cultures and immunoprecipitates were probed with antibodies to tau.
substance,measurement,value
"Aβ peptide (25-35) (GSNKGAIIGLM; Amyloid-beta protein 42; UniProt P05067 696-706, looked up, fragment) [amyloid β-peptide fragment 25-35 used to treat rat and human cortical neurons]",increase in phosphotyrosine in tau relative to basal level,approximately four times the basal level
same,tyrosine phosphorylation of neuronal proteins including tau,increased tyrosine phosphorylation
